Test results reported in patent US20060148848A1, “Compounds and methods for treating cancer and inflammation” (QLT, Inc., priority 2002, published 2006).

Assays:
SGK2α = biological target: T1, SGK2α (Homo sapiens, UniProt Q9HBY8); experiment: SGK2α in vitro kinase assay; format: biochemical; conditions: recombinant human GST-SGK2α, [γ-32P]-ATP, 15 minutes at ambient temperature
T1 construct: made in house; host or cells: baculovirus; Sf9 (virus generation) and High Five insect cells (expression)
T1 sequence (Q9HBY8 1-367): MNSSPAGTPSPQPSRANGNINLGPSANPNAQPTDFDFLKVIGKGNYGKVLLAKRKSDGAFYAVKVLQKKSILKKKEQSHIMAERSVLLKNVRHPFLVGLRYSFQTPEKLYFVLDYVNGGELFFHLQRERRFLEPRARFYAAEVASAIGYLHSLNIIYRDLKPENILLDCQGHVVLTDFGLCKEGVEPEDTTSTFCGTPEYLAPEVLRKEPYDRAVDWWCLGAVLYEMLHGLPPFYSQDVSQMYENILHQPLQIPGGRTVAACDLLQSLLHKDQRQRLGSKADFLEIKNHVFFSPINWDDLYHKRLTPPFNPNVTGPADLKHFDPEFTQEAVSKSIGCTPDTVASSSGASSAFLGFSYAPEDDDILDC
Text: SGK2α cDNA was cloned from human brain cDNA library by the polymerase chain reaction (PCR) technique and subsequently inserted directly into pPCR-2.1 T/A cloning vector (Strategene). After DNA sequencing, the confirmed wild-type human SGK2α cDNA was subcloned into baculovirus expression vector pAcG2T (BD PharMingen) for recombinant protein expression in insect cells. Expression of human SGK2α as a fusion protein required that the cDNA be ligated into the polyclonal site situated in frame and downstream of the glutathione-S-transferase gene of the baculovirus transfer vector pAcG2T. The 1104 base pair SGK2α coding sequence was excised from the pPCR-2.1 T/A vector using the Bam HI and Eco RI restriction sites generated the 5′ and 3′ of the coding sequence respectively by PCR amplification. This DNA fragment was directionally subcloned in-frame into the Bam HI and Eco RI polyclonal sites of the pAcG2T vector. Positive recombinant clones of SGK2α in the pAcG2T vector were determined by restriction enzyme analysis with Bam HI and Eco RI restriction enzymes.
Active SGK2α enzyme was expressed using the baculovirus expression vector system in a two-step process. […] A complete quantitative and qualitative analysis of the protein was monitored using Coomassie blue staining and Western blot analysis using anti-GST specific antibody (Kinetek). […]

H460 cells = experiment: Cell proliferation (3H-thymidine incorporation), H460; format: cell-based; conditions: Homo sapiens, NCI-H460, 24 hours, read-out: in vitro inhibition of cell proliferation
Text: (§1) This procedure (Jelinkova, R. B. et al., “Antiproliferative effect of a lectin- and anti-Thy-1.2 antibody-targeted HPMA copolymer-bound doxorubicin on primary and metastatic human colourectal carcinoma and on human colourectal carcinoma transfected with the mouse Thy-1.2 gene”, Bioconjug. Chem. (2000), Vol. 11, No. 5, pp. 664-73) is used to assess the effect compounds have on various cell lines with respect to proliferation. The rate of anchorage-independent growth of various tumour cells is quantified by measuring the amount of free isotopic thymidine that has been incorporated into the cells over a period of time. The effect of any compound to inhibit the proliferation of various tumour cells could be used as an indication of its ability to prevent disease progression in cancer.
(§2) Cultured tumour cells are harvested cells as per normal procedures: i.e. trypsinize, centrifuge and count cells. […]
(§3) After incubation, plates are observed under the microscope for obvious cell death, abnormal cell shape, crystal formation of the compound, etc. […] Finally, 100 μL of scintillation fluid is added to each well and the plates are counted in a Wallac™ 1450 Microbeta™ counter according to user manual instructions.
(§4) The amount of inhibition is determined by the following formula: % inhibition=100−[(AVG treatment−AVG positive control)/[…]]

HUVEC cells [1] = experiment: Cell proliferation (3H-thymidine incorporation), HUVEC; format: cell-based; conditions: Homo sapiens, 24 hours, read-out: in vitro inhibition of cell proliferation
Text: as §1, §2, §3, §4

PC3 cells = experiment: Cell proliferation (3H-thymidine incorporation), PC3; format: cell-based; conditions: Homo sapiens, PC-3, 24 hours, read-out: in vitro inhibition of cell proliferation
Text: as §1, §2, §3, §4

HS27 cells = experiment: Cytotoxicity assay (calcein AM cell viability), HS27; format: cell-based; conditions: 50 μM, approximately 24 hours
Text: (§5) This procedure is used to assess the effects compounds have on various cell lines with respect to cell viability. Cell viability is quantified using calcein AM and measuring its conversion to a fluorescent product (calcein) with a fluorimeter.
(§6) The principle of this assay is based on the presence of ubiquitous intracellular esterase activity found in live cells. By enzymatic reaction of esterase, non-fluorescent cell-permeant calcein AM is converted to the intensely fluorescent calcein. The polyanionic dye calcein is retained within live cells, producing a green fluorescence in live cells. […]
(§7) Cells were collected from tissue culture flasks and trypsinized, centrifuged, resuspended and counted. […]
(§8) The calcein AM solution is prepared by added 50 μg of calcein AM crystal (m.w.=994.87 g/mol, Molecular Probes, Eugene, Oreg.) and nnhydrous DMSO (Sigma Aldrich) to make 1 mM stock and diluting stock to 2× the final desired concentration in 1×DPBS just before the assay. […] Fluorescence data was read and recorded (Fluoroskan Ascent® FL fluorimeter (excitation˜485 nm, emission˜527 nm)).
(§9) The values for replicates (usually six) are averaged and % inhibition is calculated as follows: % inhibition=100−[(AVG treatment−AVG positive control)/(AVG negative control−AVG positive control)*100]

HUVEC cells [2] = experiment: Cytotoxicity assay (calcein AM cell viability), HUVEC; format: cell-based; conditions: 50 μM, approximately 24 hours
Text: as §5, §6, §7, §8, §9

LL-86 cells = experiment: Cytotoxicity assay (calcein AM cell viability), LL-86; format: cell-based; conditions: 50 μM, approximately 24 hours
Text: as §5, §6, §7, §8, §9

Question: With `CCc1c2cc(OC)c(OC)cc2cc(=O)n1Cc1ccccc1` [2-Benzyl-1-ethyl-6,7-dimethoxy-2H-isoquinolin-3-one] as the molecule, how does the IC50 (SGK2α) read?
Answer: 970 nM

Question: And the inhibition at 50 µM (H460 cells)?
Answer: 27%

Question: What about the inhibition at 50 µM (HUVEC cells [1]) of the same molecule?
Answer: 42%

Question: And the inhibition at 50 µM (PC3 cells)?
Answer: 67%

Question: What about the in vitro cytotoxicity (HS27 cells) of the same molecule?
Answer: 0%

Question: And the in vitro cytotoxicity (HUVEC cells [2])?
Answer: 4%

Question: And the in vitro cytotoxicity (LL-86 cells)?
Answer: 0%
